Laboratory results reported in patent publication US6630174B2, “Methods and compositions for retarding and eradicating infestation in trees and tree derived products” (Nisus Corporation, priority 1990, dated 2003).

Tests used:
[1] = system: dry wood termites; conditions: in vivo; cited from earlier work
[2] = system: broad spectrum of infestation; experiment: Boron concentration effective against infestation; type: in vivo; conditions: concentration in the wood

Row | Structure (SMILES) | boron concentration efficacious against dry wood termites [1] | concentration generally effective for preventing or eradicating a broad spectrum of infestation [2]
1 | [B] [boron] | 100 parts per million | 500 ppm
2 | O.O.O.O.O=BOB1OB(OB=O)OB2OB([O-])OB([O-])OB(O1)O2.[Na+].[Na+] [DOT, disodium octaborate tetrahydrate] |  | 2400 ppm
